The source of these data is publication PMC9934367, “Functional impact of subunit composition and compensation on Drosophila melanogaster nicotinic receptors–targets of neonicotinoids” (PLOS Genetics, 2023).

One test deals with T1, Dα3/Dβ1 nAChR (Drosophila melanogaster, UniProt P04755+Q9W3G6).
T1 construct: Dβ1 (NP_523927); expressed in transfected cells; host or cells: Xenopus laevis oocytes (cRNA injection)
In words: cell-based. It counts as cell-based, D. melanogaster. The settings on record: Dα3/Dβ1 nAChR, mean ± standard error (n = 5). As to the method:
(§1) cDNAs of the nAChR subunits and co-factors were cloned into pcDNA3.1 (+) vector (Thermo Fisher Scientific). The accession numbers of the nAChR subunits and cofactors are as follows: Dα1 (NP_524481), Dα2 (NP_524482), Dα3 (NP_525079), Dα4 (CAB77445), Dβ1 (NP_523927), Dβ2 (NP_524483), Dβ3 (NP_525098), DmRIC-3 (CAP16647), DmUNC-50 (NP_649813), and DmTMX3 (NP_648847). cRNAs were prepared using the mMESSAGE mMACHINE T7 ULTRA Transcription Kit (Thermo Fisher Scientific, #AM1345) according to the manual with the cDNA template which was cut with appropriate restriction enzymes at the 3’ end of the cDNA.
(§2) We minimised the use of X. laevis according to the UK Animals (Scientific Procedures) Act, 1986. […] Oocytes were defolliculated after collagenase treatment in Ca^2+-free standard oocyte saline (Ca^2+-free SOS). cRNAs of the nAChR subunits and co-factors mixed at a concentration of 0.1 mg/mL was injected into oocytes at a volume of 50 nL. Then the oocytes were incubated in the incubation medium (SOS supplemented with sodium pyruvate (Nacalai Tesque, #13058–12), penicillin-streptomycin (MilliporeSigma, #P4333), gentamycin (Nacalai Tesque, #16672–04), and 4% horse serum (Thermo Fisher Scientific, #26050–070) for 3−4 days prior to electrophysiology.
(§3) Each defolliculated X. laevis oocyte was secured in a Perspex recording chamber and perfused with the standard oocyte saline (SOS) containing 0.5 μM atropine (SOSA) at a flow rate of 7−10 mL/min [48]. Two glass electrodes filled with 2 M KCl were impaled into each oocyte and the membrane potential was clamped at -100 mV. […] The peak amplitude of the response was measured and analysed by pCLAMP (Molecular Devices, USA).
(§4) Y=Imax/1+10^(logEC50‐X)nH
(§5) Where Y is the normalised response, X is log[ligand (M)], EC50 is the half maximal concentration (M), Imax is the maximum normalised response and nH is the Hill coefficient.

Test [1] has as its system Adult D. melanogaster flies. The experiment in a line: Adult climbing assay. It counts as in vivo. The settings on record: RNAi of Dα2. The protocol:
(§6) All flies were raised at 25°C under 12 h/12 h light/dark cycle. The animals were reared on standard fly food containing 5.5 g agar, 100 g glucose, 40 g dry yeast, 90 g cornflour, 3 mL propionic acid, and 3.5 mL 10% butyl p-hydroxybenzoate (Nacalai Tesque, Japan, #06327–15) in 70% ethanol per liter. The control strain was w^1118, and transgenic flies are as follows: UAS-nAChRα1 RNAi (#28688) was obtained from the Bloomington Drosophila Stock Center (BDSC); UAS-nAChRα2 RNAi (UAS-Dα2 RNAi, #10760), UAS-nAChRα3 RNAi (UAS-Dα3 RNAi, #101806); UAS-dicer2 (#60009) were obtained from the Vienna Drosophila Resource Center (VDRC); and UAS-mCD8::GFP (#108068) was obtained from Kyoto Stock Center. elav-Gal4 (3A3) was obtained from Michael B. O’Connor. nAChRα3-knock-in 2A-Gal4 (Dα3-knock-in T2A-Gal4) was generated by the CRISPR/Cas9 system as described in detail below.
Adult D. melanogaster flies were collected within a day following eclosion and placed in normal fly food (less than 30 flies/vial). Flies were transferred daily to new fly food. 2–5 days after eclosion, flies were briefly anesthetised with CO2, and the sexes were separated and sorted into fly vials containing 1.0% agar food for starvation (10 flies/vial). After 16 h starvation, flies were transferred to vials containing neonicotinoid-containing food without anesthesia and cultured for 6 h (10 flies/vial). Neonicotinoid-containing foods were prepared by mixing 10 μL of diluted neonicotinoids dissolved in DMSO with 990 μL of a solution containing 1% agar and 5% sucrose for each vial. After 6 h cultured in vials containing neonicotinoid-containing food, flies were gently tapped down to the surface of the food, and flies that climbed within 20 s after tapping were recorded by a video camera (GZ-F270-W, JVCKENWOOD, Japan). The maximum climbing heights of the flies within 20 s after tapping were measured using ImageJ1.53v (National Institute of Health, USA). Since the height from the surface of the food to the vial top is 8 cm, the maximum climbing height is 8 cm.

Another test has as its target T2, Dα1/Dα3/Dβ1/Dβ2 nAChR (Drosophila melanogaster, UniProt P04755+P09478+P25162+Q9W3G6).
T2 construct: Dα1 (NP_524481); Dβ1 (NP_523927); Dβ2 (NP_524483); expressed in transfected cells; host or cells: Xenopus laevis oocytes (cRNA injection)
In words: cell-based. Details: species or system D. melanogaster. The note with it: mean ± standard error (n = 5). As to the method: as §1, §2, §3, §4, §5

The next test concerns the target T3, Dα1/Dα3/Dβ1 nAChR (Drosophila melanogaster, UniProt P04755+P09478+Q9W3G6).
T3 construct: Dα1 (NP_524481); Dβ1 (NP_523927); expressed in transfected cells; host or cells: Xenopus laevis oocytes (cRNA injection)
The experiment in a line: cell-based. Details: species or system D. melanogaster. The protocol: as §1, §2, §3, §4, §5

The next test has as its target T4, Dα1/Dα2/Dα3/Dβ1 nAChR (Drosophila melanogaster, UniProt P04755+P09478+P17644+Q9W3G6).
T4 construct: Dα1 (NP_524481); Dα2 (NP_524482); Dβ1 (NP_523927); expressed in transfected cells; host or cells: Xenopus laevis oocytes (cRNA injection)
The experiment in a line: cell-based. Details: species or system D. melanogaster. The note with it: mean ± standard error (n = 5). As to the method: as §1, §2, §3, §4, §5

For the next test, the system named is D. melanogaster larvae. In words: Pupariation rate assay. The class given is in vivo. As to the method: as §6
Eggs were laid on grape juice plates with yeast paste at 25°C for 6 h. […] After a week of incubation at 25°C, pupal numbers were scored in each vial.

Test [2] addresses Dα1/Dα2/Dα4/Dβ1/Dβ2 nAChR. The note with it: mean ± standard error (n = 5); for Imax: normalised to maximum ACh response. As to the method: as §1, §2, §3, §4, §5
Test [3] addresses Dα2/Dα3/Dα4/Dβ1/Dβ2 nAChR. The settings on record: mean ± standard error (n = 5); for Imax: normalised to maximum ACh response. The protocol: as §1, §2, §3, §4, §5
Test [4] has as its target Dα1/Dα3/Dα4/Dβ1/Dβ2 nAChR. The note with it: mean ± standard error (n = 5); for Imax: normalised to maximum ACh response. The protocol: as §1, §2, §3, §4, §5
The mark [5] stands for this setting: normalised to maximum ACh response.
Setting [6] is: efficacy, mean ± standard error (n = 5).
The mark [7] stands for this setting: mean ± standard error (n = 5), read-out: pEC50 (converted).
[8] abbreviates: normalised to maximum ACh response, mean ± standard error (n = 5).
[9] abbreviates: RNAi of Dα1 (pan-neuronal knockdown) vs control.
Setting [10] is: RNAi of Dα2 (pan-neuronal knockdown) vs control.

Molecules are shown by their SMILES. Read-outs that look alike come from different tables or passages of the source.

For the compound `CN/C(=N\[N+](=O)[O-])NCc1cnc(Cl)s1` [Clothianidin, clothianidin], the EC50 at Dα3/Dβ1 nAChR was 28.8 nM; at Dα1/Dα3/Dβ1/Dβ2 nAChR it was 39.8 nM; on Dα1/Dα3/Dβ1 nAChR (setting [7]), 63.1 nM; on Dα1/Dα2/Dα3/Dβ1 nAChR, 282 nM. In addition, the Imax on Dα3/Dβ1 nAChR (setting [5]) amounted to 0.691 ± 0.013; on Dα3/Dβ1 nAChR (efficacy) it was 0.691; at Dα1/Dα3/Dβ1/Dβ2 nAChR (efficacy), 0.684; on Dα1/Dα3/Dβ1/Dβ2 nAChR (setting [5]), 0.684 ± 0.022; on Dα1/Dα3/Dβ1 nAChR (setting [6]), 0.627; on Dα1/Dα3/Dβ1 nAChR (setting [8]), 0.627 ± 0.025. The Imax was 0.817 at Dα1/Dα2/Dα3/Dβ1 nAChR (efficacy); 0.817 ± 0.024 at Dα1/Dα2/Dα3/Dβ1 nAChR (setting [5]); 1.001 ± 0.031 in test [2]; 1.001 in [2] (listed as clothianidin); 0.912 ± 0.041 in [3]; 0.425 ± 0.008 in test [4]. This compound registered an Imax in test [4] (listed as clothianidin) of 0.425. Besides, the “sensitivity in adults, effect of RNAi” value in [1] (adult males) is “hypersensitivity”. Moreover, the “toxicity in larvae, effect of RNAi” value in the test on D. melanogaster larvae (setting [9]) and in the test on D. melanogaster larvae (setting [10]) was “reduced toxicity” each time. Also, the figures for the pEC50 in test [2], in test [3] and in test [4] were 6.72 ± 0.09, 7.11 ± 0.12 and 6.94 ± 0.06, respectively.
`O=[N+]([O-])NC1=NCCN1Cc1ccc(Cl)nc1` [Imidacloprid, imidacloprid]: the EC50 at Dα3/Dβ1 nAChR was 4.79 nM; on Dα1/Dα3/Dβ1/Dβ2 nAChR, 30.2 nM; on Dα1/Dα3/Dβ1 nAChR (setting [7]) it was 26.3 nM; at Dα1/Dα2/Dα3/Dβ1 nAChR, 83.2 nM. For the same compound, the Imax at Dα3/Dβ1 nAChR (setting [5]) turned out to be 0.032 ± 0.003; on Dα3/Dβ1 nAChR (efficacy), 0.032; on Dα1/Dα3/Dβ1/Dβ2 nAChR (efficacy) it was 0.330; at Dα1/Dα3/Dβ1/Dβ2 nAChR (setting [5]), 0.330 ± 0.018; on Dα1/Dα3/Dβ1 nAChR (setting [6]), 0.170; at Dα1/Dα3/Dβ1 nAChR (setting [8]), 0.170 ± 0.020. Also, the Imax at Dα1/Dα2/Dα3/Dβ1 nAChR (efficacy) was determined as 0.094; on Dα1/Dα2/Dα3/Dβ1 nAChR (setting [5]), 0.094 ± 0.007; in test [2], 0.172 ± 0.020; in test [3], 0.027 ± 0.002; in test [3] (listed as imidacloprid), 0.027; in test [4], 0.101 ± 0.008. Moreover, the “sensitivity in adults, effect of RNAi” value in test [1] (adult females) and in test [1] (adult males) was “hypersensitivity” each time. Moreover, the “toxicity in larvae, effect of RNAi” value in the test with D. melanogaster larvae (setting [9]) and in the test with D. melanogaster larvae (setting [10]) was “reduced toxicity” in each case. Moreover, the pEC50 in test [2] stood at 6.48 ± 0.28; in test [3] it was 7.40 ± 0.20; in [4] it was 7.30 ± 0.17.
Regarding `CC(=O)OCC[N+](C)(C)C` [ACh, acetylcholine], the Imax on Dα3/Dβ1 nAChR (efficacy), on Dα1/Dα3/Dβ1/Dβ2 nAChR (efficacy), on Dα1/Dα3/Dβ1 nAChR (setting [6]) and on Dα1/Dα2/Dα3/Dβ1 nAChR (efficacy) was 1 each time.
Consider `N#C/N=C1\SCCN1Cc1ccc(Cl)nc1` [Thiacloprid, thiacloprid], for which the EC50 at Dα3/Dβ1 nAChR was 15.8 nM; on Dα1/Dα3/Dβ1/Dβ2 nAChR, 10 nM; on Dα1/Dα3/Dβ1 nAChR (read-out: EC50), 8.51 nM; at Dα1/Dα2/Dα3/Dβ1 nAChR, 18.6 nM. Further, the Imax is given as 0.016 ± 0.001 on Dα3/Dβ1 nAChR (setting [5]); 0.016 at Dα3/Dβ1 nAChR (efficacy); 0.107 at Dα1/Dα3/Dβ1/Dβ2 nAChR (efficacy); 0.107 ± 0.015 on Dα1/Dα3/Dβ1/Dβ2 nAChR (setting [5]); 0.047 at Dα1/Dα3/Dβ1 nAChR (setting [6]); 0.047 ± 0.006 on Dα1/Dα3/Dβ1 nAChR (setting [8]). Also, the Imax worked out at 0.047 on Dα1/Dα2/Dα3/Dβ1 nAChR (efficacy); 0.047 ± 0.004 at Dα1/Dα2/Dα3/Dβ1 nAChR (setting [5]); 0.066 ± 0.007 in test [2]; 0.018 ± 0.002 in test [3]; 0.018 in test [3] (listed as thiacloprid); 0.026 ± 0.001 in test [4]. The “sensitivity in adults, effect of RNAi” value in test [1] (adult females) and in test [1] (adult males) was “hypersensitivity” each time. Moreover, the “toxicity in larvae, effect of RNAi” value in the test on D. melanogaster larvae (setting [9]) and in the test on D. melanogaster larvae (setting [10]) was “reduced toxicity” each time. For the same compound, the pEC50 in test [2] was 7.01 ± 0.19; in test [3] it was 7.99 ± 0.20; in test [4], 7.96 ± 0.10.

What is called pEC50 is −log10 of the EC50, conventionally taken in molar units. A high value points to a small EC50.
